{"source": "patent US20220218852A1", "about": "“NOVEL RADIOLABELLED CXCR4-TARGETING COMPOUNDS FOR DIAGNOSIS AND THERAPY” (PROVINCIAL HEALTH SERVICES AUTHORITY, priority 2019, published 2022)", "test": "Biodistribution in PC3 tumor-bearing mice", "type": "in vivo", "settings": "male, NOD.Cg-Rag1^tm1MomII2rg^tm1Wjl/SzJ (NRG), mouse, iv, total radioactivity", "description": "For Daudi, Z138, GRANTA519 and Jeko1 xenografts, male NOD.Cg-Rag1^tm1MomII2rg^tm1Wjl/SzJ (NRG) mice were subcutaneously inoculated on the left flank with 5×10^6 cells (100 μL; 1:1 ratio of PBS/Matrigel) and tumors were grown to a size of 200-500 mm^3. For PC-3 xenografts, male NOD.Cg-Rag1^tm1MomII2rg^tm1Wjl/SzJ (NRG) mice were subcutaneously inoculated on the left flank with 5×10^6 PC-3 cells (100 μL; 1:1 ratio of PBS/Matrigel) and tumors were grown to a size of 200-400 mm^3.\nThe mice were euthanized via CO2 inhalation while anesthetized with isoflurane. Tissues were harvested, washed in PBS, blotted dry, weighed, and measured on a Hidex AMG Automatic Gamma Counter.", "note": "Like-named read-outs stand apart in the source and are kept apart here. Positions of bridges follow the written chain, without caps; N, C: chain ends. Non-standard residues stand in square brackets, D forms with d. Residues, ends and D or L forms follow the SMILES beside them. Groups on a side chain read outwards from the residue. *: point of attachment. DOTA = O=C(O)CN1CCN(CC(=O)O)CCN(CC(=O)*)CCN(CC(=O)O)CC1; 2Nal = N[C@@H](Cc1ccc2ccccc2c1)C(=O)O; Lys(iPr) = CC(C)NCCCC[C@H](N)C(=O)O"}
{"molecule": "CC(C)NCCCC[C@@H]1NC(=O)[C@H](Cc2ccc(O)cc2)NC(=O)[C@H](Cc2ccccc2)NC(=O)CC[C@H](C(=O)N[C@@H](CCCCNC(C)C)C(=O)N[C@@H](CCCCNC(=O)[C@H](CCC(=O)O)NC(=O)[C@H](CCC(=O)O)NC(=O)[C@H](CCC(=O)O)NC(=O)CN2CCN(CC(=O)O)CCN(CC(=O)O)CCN(CC(=O)O)CC2)C(N)=O)NC(=O)CNC(=O)[C@H](Cc2ccc3ccccc3c2)NC(=O)[C@@H](CCCNC(=N)N)NC1=O", "note": "[[^68Ga]Ga-BL02, metal not drawn] (FY[Lys(iPr)][dR][2Nal]G[dE][Lys(iPr)]K([Glu-Glu-Glu-DOTA])-NH2; lactam N-7)", "values": [{"measurement": "tissue uptake at 1 h", "setting": "PC3 tumor, 1 h, read-out: Biodistribution PC3 (tumor)", "result": 1.83, "unit": "%ID/g"}, {"measurement": "tissue uptake at 1 h", "setting": "PC3 tumor, 1 h blocked (7.5 μg LY2510924 i.p.), read-out: Biodistribution PC3 (tumor)", "result": 0.75, "unit": "%ID/g"}, {"measurement": "tissue uptake at 2 h", "setting": "PC3 tumor, read-out: Biodistribution PC3 (tumor)", "result": 1.41, "unit": "%ID/g"}, {"measurement": "tissue uptake at 1 h", "setting": "adrenals, 1 h, read-out: Biodistribution Adrenals", "result": 0.18, "unit": "%ID/g"}, {"measurement": "tissue uptake at 1 h", "setting": "adrenals, 1 h blocked (7.5 μg LY2510924 i.p.), read-out: Biodistribution Adrenals", "result": 0.18, "unit": "%ID/g"}, {"measurement": "tissue uptake at 2 h", "setting": "adrenals, read-out: Biodistribution Adrenals", "result": 0.1, "unit": "%ID/g"}, {"measurement": "tissue uptake at 1 h", "setting": "blood, 1 h, read-out: Biodistribution Blood", "result": 0.33, "unit": "%ID/g"}, {"measurement": "tissue uptake at 1 h", "setting": "blood, 1 h blocked (7.5 μg LY2510924 i.p.), read-out: Biodistribution Blood", "result": 0.54, "unit": "%ID/g"}, {"measurement": "tissue uptake at 2 h", "setting": "blood, read-out: Biodistribution Blood", "result": 0.06, "unit": "%ID/g"}, {"measurement": "tissue uptake at 1 h", "setting": "bone, 1 h, read-out: Biodistribution Bone", "result": 0.12, "unit": "%ID/g"}, {"measurement": "tissue uptake at 1 h", "setting": "bone, 1 h blocked (7.5 μg LY2510924 i.p.), read-out: Biodistribution Bone", "result": 0.15, "unit": "%ID/g"}, {"measurement": "tissue uptake at 2 h", "setting": "bone, read-out: Biodistribution Bone", "result": 0.11, "unit": "%ID/g"}, {"measurement": "tissue uptake at 1 h", "setting": "brain, 1 h, read-out: Biodistribution Brain", "result": 0.01, "unit": "%ID/g"}, {"measurement": "tissue uptake at 1 h", "setting": "brain, 1 h blocked (7.5 μg LY2510924 i.p.), read-out: Biodistribution Brain", "result": 0.02, "unit": "%ID/g"}, {"measurement": "tissue uptake at 2 h", "setting": "brain, read-out: Biodistribution Brain", "result": 0.01, "unit": "%ID/g"}, {"measurement": "tissue uptake at 1 h", "setting": "fat, 1 h, read-out: Biodistribution Fat", "result": 0.2, "unit": "%ID/g"}, {"measurement": "tissue uptake at 1 h", "setting": "fat, 1 h blocked (7.5 μg LY2510924 i.p.), read-out: Biodistribution Fat", "result": 0.16, "unit": "%ID/g"}, {"measurement": "tissue uptake at 2 h", "setting": "fat, read-out: Biodistribution Fat", "result": 0.01, "unit": "%ID/g"}, {"measurement": "tissue uptake at 1 h", "setting": "heart, 1 h, read-out: Biodistribution Heart", "result": 0.14, "unit": "%ID/g"}, {"measurement": "tissue uptake at 1 h", "setting": "heart, 1 h blocked (7.5 μg LY2510924 i.p.), read-out: Biodistribution Heart", "result": 0.21, "unit": "%ID/g"}, {"measurement": "tissue uptake at 2 h", "setting": "heart, read-out: Biodistribution Heart", "result": 0.06, "unit": "%ID/g"}, {"measurement": "tissue uptake at 1 h", "setting": "intestine, 1 h, read-out: Biodistribution Intestine", "result": 0.18, "unit": "%ID/g"}, {"measurement": "tissue uptake at 1 h", "setting": "intestine, 1 h blocked (7.5 μg LY2510924 i.p.), read-out: Biodistribution Intestine", "result": 0.25, "unit": "%ID/g"}, {"measurement": "tissue uptake at 2 h", "setting": "intestine, read-out: Biodistribution Intestine", "result": 0.14, "unit": "%ID/g"}, {"measurement": "tissue uptake at 1 h", "setting": "kidney, 1 h, read-out: Biodistribution Kidney", "result": 3.6, "unit": "%ID/g"}, {"measurement": "tissue uptake at 1 h", "setting": "kidney, 1 h blocked (7.5 μg LY2510924 i.p.), read-out: Biodistribution Kidney", "result": 3.75, "unit": "%ID/g"}, {"measurement": "tissue uptake at 2 h", "setting": "kidney, read-out: Biodistribution Kidney", "result": 4.67, "unit": "%ID/g"}, {"measurement": "tissue uptake at 1 h", "setting": "liver, 1 h, read-out: Biodistribution Liver", "result": 0.55, "unit": "%ID/g"}, {"measurement": "tissue uptake at 1 h", "setting": "liver, 1 h blocked (7.5 μg LY2510924 i.p.), read-out: Biodistribution Liver", "result": 0.5, "unit": "%ID/g"}, {"measurement": "tissue uptake at 2 h", "setting": "liver, read-out: Biodistribution Liver", "result": 0.73, "unit": "%ID/g"}, {"measurement": "tissue uptake at 1 h", "setting": "lung, 1 h, read-out: Biodistribution Lung", "result": 0.5, "unit": "%ID/g"}, {"measurement": "tissue uptake at 1 h", "setting": "lung, 1 h blocked (7.5 μg LY2510924 i.p.), read-out: Biodistribution Lung", "result": 0.6, "unit": "%ID/g"}, {"measurement": "tissue uptake at 2 h", "setting": "lung, read-out: Biodistribution Lung", "result": 0.33, "unit": "%ID/g"}, {"measurement": "tissue uptake at 1 h", "setting": "muscle, 1 h, read-out: Biodistribution Muscle", "result": 0.08, "unit": "%ID/g"}, {"measurement": "tissue uptake at 1 h", "setting": "muscle, 1 h blocked (7.5 μg LY2510924 i.p.), read-out: Biodistribution Muscle", "result": 0.11, "unit": "%ID/g"}, {"measurement": "tissue uptake at 2 h", "setting": "muscle, read-out: Biodistribution Muscle", "result": 0.03, "unit": "%ID/g"}, {"measurement": "tissue uptake at 1 h", "setting": "pancreas, 1 h, read-out: Biodistribution Pancreas", "result": 0.1, "unit": "%ID/g"}, {"measurement": "tissue uptake at 1 h", "setting": "pancreas, 1 h blocked (7.5 μg LY2510924 i.p.), read-out: Biodistribution Pancreas", "result": 0.12, "unit": "%ID/g"}, {"measurement": "tissue uptake at 2 h", "setting": "pancreas, read-out: Biodistribution Pancreas", "result": 0.04, "unit": "%ID/g"}, {"measurement": "tissue uptake at 1 h", "setting": "spleen, 1 h, read-out: Biodistribution Spleen", "result": 0.28, "unit": "%ID/g"}, {"measurement": "tissue uptake at 1 h", "setting": "spleen, 1 h blocked (7.5 μg LY2510924 i.p.), read-out: Biodistribution Spleen", "result": 0.37, "unit": "%ID/g"}, {"measurement": "tissue uptake at 2 h", "setting": "spleen, read-out: Biodistribution Spleen", "result": 0.25, "unit": "%ID/g"}, {"measurement": "tissue uptake at 1 h", "setting": "stomach, 1 h, read-out: Biodistribution Stomach", "result": 0.05, "unit": "%ID/g"}, {"measurement": "tissue uptake at 1 h", "setting": "stomach, 1 h blocked (7.5 μg LY2510924 i.p.), read-out: Biodistribution Stomach", "result": 0.06, "unit": "%ID/g"}, {"measurement": "tissue uptake at 2 h", "setting": "stomach, read-out: Biodistribution Stomach", "result": 0.06, "unit": "%ID/g"}, {"measurement": "tissue uptake at 1 h", "setting": "testes, 1 h, read-out: Biodistribution Testes", "result": 0.18, "unit": "%ID/g"}, {"measurement": "tissue uptake at 1 h", "setting": "testes, 1 h blocked (7.5 μg LY2510924 i.p.), read-out: Biodistribution Testes", "result": 0.35, "unit": "%ID/g"}, {"measurement": "tissue uptake at 2 h", "setting": "testes, read-out: Biodistribution Testes", "result": 0.06, "unit": "%ID/g"}]}
